# Assays:
# [1] = system: Blood cancer cells RS4; 11; assay: CellTiter Glo test: growth inhibition of cells; type: cell-based; conditions: Homo sapiens, 11 cells, 72 h, cell viability
# Solubility test = type: physicochemical; conditions: aqueous buffer, kinetic from dmso stock, phosphate buffer pH 7.4, 25° C.
# Experimental: Test Example 2: Solubility Test
# A test substance and a control drug progesterone were prepared with DMSO into a 10 mM stock solution
# 30 μL 10 mM stock solution prepared from the test substance and the control drug progesterone was taken and added into bottles in corresponding positions of 96-well sample plate in a specified order. Then, 970 μL of phosphate buffer with pH 7.4 was added into corresponding bottles of the sample plate. The experiments were two parallel experiments. A stirring rod was added into each bottle, and each bottle was covered with a polytetrafluoroethylene/silicon organic resin bottle plug. Then, a sample tray was placed in Eppendorf Thermomixer Comfort and vibrated at a rotating speed of 1100/min at 25° C. for 2 h. 2 h later, the bottle plug was removed, the stirring rod was taken away with a large magnet, and then samples were transferred to a filter plate from the sample plate. A vacuum pump generated a negative pressure to filter the samples. […]
# A sample injection plate was placed in a sample injection tray of an automatic sample injection, and samples were evaluated through liquid analysis. […]
# Analysis and quantification of the filter of the samples were completed by qualitatively and quantitatively analyzing the peak of a standard product with known concentration through liquid chromatography-mass spectrometry. […]
# MDM2 = MDM2 (Homo sapiens, UniProt Q00987); assay: HTRF test: inhibition of MDM2-p53 protein binding
# MDMX = target: T1, MDMX (Homo sapiens, UniProt O15151); assay: HTRF test: inhibition of MDMX-p53 protein binding
# T1 sequence (O15151 2-134): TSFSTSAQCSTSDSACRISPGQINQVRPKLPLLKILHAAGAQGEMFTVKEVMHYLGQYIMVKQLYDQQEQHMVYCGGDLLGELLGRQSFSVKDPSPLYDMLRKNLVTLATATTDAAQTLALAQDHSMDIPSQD
# Sequence of MDM2 (Q00987 2-138): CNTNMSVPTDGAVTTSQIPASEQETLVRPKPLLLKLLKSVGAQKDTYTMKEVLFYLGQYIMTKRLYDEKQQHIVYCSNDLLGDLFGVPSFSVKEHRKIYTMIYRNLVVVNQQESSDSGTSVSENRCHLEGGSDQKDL
SMILES,IC50 [1] [nM],solubility at 2 h (Solubility test) [µg/mL],IC50 (MDM2) [nM],IC50 (MDMX) [nM]
"O=C1N/C(=C\c2c[nH]c3c(F)c(Cl)ccc23)C(=O)N1Cc1cc(F)c(Cl)cc1F [Compound 100, (Z)-3-(4-chloro-2,5-difluorobenzyl)-5-((6-chloro-7-fluoro-1H-indol-3-yl)methylene)imidazolidine-2,4-dione]",≤ 1000,–,< 10,10 to 100
"O=C1N/C(=C\c2c[nH]c3c(F)c(Cl)ccc23)C(=O)N1C(CO)c1cc(F)c(Cl)cc1F (stereo not shown) [Compound 101, (Z)-3-(1-(4-chloro-2,5-difluorophenyl)-2-hydroxyethyl)-5-((6-chloro-7-fluoro-1H-indol-3-yl)methylene)imidazolidine-2,4-dione]",1000 to 10000,–,10 to 100,> 100
"O=C1N/C(=C\c2c[nH]c3c(F)c(Cl)ccc23)C(=O)N1Cc1c(F)cc(Cl)cc1F [Compound 102, (Z)-3-(4-chloro-2,6-difluorobenzyl)-5-((6-chloro-7-fluoro-1H-indol-3-yl)methylene)imidazolidine-2,4-dione]",≤ 1000,–,10 to 100,10 to 100
"O=C1N/C(=C\c2c[nH]c3c(F)c(Cl)ccc23)C(=O)N1Cc1ccc(Cl)c(F)c1F [Compound 104, (Z)-3-(4-chloro-2,3-difluorobenzyl)-5-((6-chloro-7-fluoro-1H-indol-3-yl)methylene)imidazolidine-2,4-dione]",≤ 1000,–,10 to 100,10 to 100
"O=C1N/C(=C\c2c[nH]c3c(F)c(Cl)ccc23)C(=O)N1C(CO)c1ccc(Cl)c(F)c1F (stereo not shown) [Compound 105, (Z)-3-(1-(4-chloro-2,3-difluorophenyl)-2-hydroxyethyl)-5-((6-chloro-7-fluoro-1H-indol-3-yl)methylene)imidazolidine-2,4-dione]",≤ 1000,–,10 to 100,10 to 100
"O=C1N/C(=C\c2c[nH]c3c(F)c(Cl)ccc23)C(=O)N1Cc1cc(F)c(Cl)c(F)c1 [Compound 106, (Z)-3-(4-chloro-3,5-difluorobenzyl)-5-((6-chloro-7-fluoro-1H-indol-3-yl)methylene)imidazolidine-2,4-dione]",≤ 1000,–,10 to 100,10 to 100

# Results, then the compound that gave them:
IC50 [1] [nM],solubility at 2 h (Solubility test) [µg/mL],IC50 (MDM2) [nM],IC50 (MDMX) [nM],SMILES
≤ 1000,0.075,< 10,10 to 100,"N#Cc1ccc(C(CO)N2C(=O)N/C(=C\c3c[nH]c4cc(Cl)ccc34)C2=O)cc1 (stereo not shown) [Compound 38, (Z)-4-(1-(4-((6-chloro-1H-indol-3-yl)methylene)-2,5-dioxoimidazolidin-1-yl)-2-hydroxyethyl)benzonitrile]"
–,146,10 to 100,> 100,"N#Cc1ccc(C(COP(=O)(O)O)N2C(=O)N/C(=C\c3c[nH]c4cc(Cl)ccc34)C2=O)cc1 (stereo not shown) [Compound 40, (Z)-2-(4-((6-chloro-1H-indol-3-yl)methylene)-2,5-dioxoimidazolidin-1-yl)-2-(4-cyanophenyl)ethyl dihydrophosphate]"
≤ 1000,–,< 10,< 10,"Cc1c(Cl)ccc2c(/C=C3\NC(=O)N([C@@H](CO)c4ccc(C#N)cc4)C3=O)c[nH]c12 [Compound 96, (R,Z)-4-(1-(4-((6-chloro-7-methyl-1H-indol-3-yl)methylene)-2,5-dioxoimidazolidin-1-yl)-2-hydroxyethyl)benzonitrile]"
≤ 1000,–,10 to 100,10 to 100,"Cc1c(Cl)ccc2c(/C=C3\NC(=O)N([C@H](CO)c4ccc(C#N)cc4)C3=O)c[nH]c12 [Compound 97, (S,Z)-4-(1-(4-((6-chloro-7-methyl-1H-indol-3-yl)methylene)-2,5-dioxoimidazolidin-1-yl)-2-hydroxyethyl)benzonitrile]"
≤ 1000,–,10 to 100,> 100,"O=C1N/C(=C\c2c[nH]c3c(F)c(Cl)ccc23)C(=O)N1Cc1ccc(Cl)cc1F [Compound 98, (Z)-3-(4-chloro-2-fluorobenzyl)-5-((6-chloro-7-fluoro-1H-indol-3-yl)methylene)imidazolidine-2,4-dione]"
≤ 1000,–,10 to 100,10 to 100,"O=C1N/C(=C\c2c[nH]c3c(F)c(Cl)ccc23)C(=O)N1C(CO)c1ccc(Cl)cc1F (stereo not shown) [Compound 99, (Z)-3-(1-(4-chloro-2-fluorophenyl)-2-hydroxyethyl)-5-((6-chloro-7-fluoro-1H-indol-3-yl)methylene)imidazolidine-2,4-dione]"
1000 to 10000,–,< 10,> 100,"O=C1N/C(=C\c2c[nH]c3c(F)c(Cl)ccc23)C(=O)N1C(CO)c1c(F)cc(Cl)cc1F (stereo not shown) [Compound 103, (Z)-3-(1-(4-chloro-2,6-difluorophenyl)-2-hydroxyethyl)-5-((6-chloro-7-fluoro-1H-indol-3-yl)methylene)imidazolidine-2,4-dione]"
≤ 1000,–,10 to 100,10 to 100,"O=C1N/C(=C\c2c[nH]c3c(F)c(Cl)ccc23)C(=O)N1C(CO)c1cc(F)c(Cl)c(F)c1 (stereo not shown) [Compound 107, (Z)-3-(1-(4-chloro-3,5-difluorophenyl)-2-hydroxyethyl)-5-((6-chloro-7-fluoro-1H-indol-3-yl)methylene)imidazolidine-2,4-dione]"

# Source: US20250223307A1, “MDM2/MDMX DOUBLE-TARGET INHIBITOR COMPOUND, PRODRUG, PHARMACEUTICAL COMPOSITION, AND PREPARATION METHOD THEREFOR AND USE THEREOF” (GLOBAL HEALTH DRUG DISCOVERY INSTITUTE, priority 2022, published 2025)
